These results are taken from patent publication US20240124467A1, “FUSED PYRIMIDINE COMPOUNDS AS INHIBITORS OF MENIN-MLL INTERACTION” (Biomea Fusion, Inc., priority 2020, published 2024).

Common to all, as to format: cell-based
The subject of experiment [1] is K-562. Briefly: Cell proliferation inhibition (CellTiter-Glo), K-562 cells. The note with it: Homo sapiens, K-562 (BCR-ABL). As to the method:
(§1) The present example evaluates the ability of compounds described herein, inhibitors of Menin/MLL interaction, to inhibit cell proliferation. The proliferation inhibitory effect was investigated in human MLL-leukemia cells selected on the bases of MLL fusion proteins and listed in the table below.
(§2) ATP is present in all metabolically active cells and is considered as a marker for cell viability and proliferation. The metabolic cell activity was determined using the CellTiter-Glo kit from Promega, an ATP monitoring system based on the production of luminescence by the reaction of ATP with added UltraGlo® recombinant luciferase (Kawano et al., 2016, PLOS One, 8:11(7):e0158888), according to the supplier's experimental recommendations. The assay is based on a 96 well plate format. All experiments were carried out in duplicate in one test occasion.
(§3) Test items were dissolved at 20 mM in DMSO with purity ≥99.9% (Sigma catalog no. D8418) and stored at −20° C. Cells were maintained in RPMI-1640 medium (Invitrogen catalog no. 618700) supplemented with 10% of Heat Inactivated FBS (Invitrogen catalog no. 10500) and 1% Pen-Strep (Invitrogen catalog no. 15140) and cultured at 37° C. in a humidified incubator with 5% CO2. Cell lines were grown in suspension and the cell density was maintained in a range of 5×10^4-1×10^6 viable cells/ml where possible. Cells were pelleted at 130 g×5 min.
(§4) Serial dilutions of compounds 1 to 3 in DMSO 100% were prepared starting from a 2.5 mM solutions (prepared by diluting 1:8 the 20 mM stock solution) to generate a 7 point concentration response curve (CRC). Seven concentrations of test compounds (e.g., 5.00×10^−6-1.67×10^−6-5.56×10^−7-1.85×10^−7-6.17×10^−8-2.06×10^−8-6.86×10^−9 M) were assessed in duplicate in an individual test occasion in parallel in the selected cell lines. KO-539 was used as a reference compound and tested in duplicate at seven similar concentrations. 100% of proliferation was represented by the untreated cells (0.2% DMSO).
(§5) Cell proliferation inhibition was monitored at both the following end points: Day 4 (T4) and Day 7 (T7). For the appropriate cell density during the exponential cell growth and re-supply with fresh compound solution at T4, cells were diluted (1:4) with fresh medium containing the compound concentration (1×).
(§6) For each plate to test, one 0.4 μL copy plate and four 0.3 μL copy plates were stamped into 96-well plates not treated for cell adhesion (Sarstedt—cat. no. 82.1581.001) by acoustic liquid handling (Echo) at a concentration which was 500 fold the final assay concentration. Stamped plates were stored at −20° C.
(§7) On Day 0, the day of the experiment cell line suspensions were counted by Cell Viability Analyser, Vi-CELL (Beckman Coulter AY15292), and diluted with fresh medium to obtain the following cell densities: K-562 500 c/ml, MOLM-13 1,000 c/ml, MV4-11 10,000 c/ml, OCI-AML-3 500 c/ml, and U-937 500-1,000 c/ml. 200 μL/well and 150 μL/well of cell suspension were added into the 0.4 μL/well and 0.3 μL/well compound plates, respectively. Cell plate containing 200 μL/well suspension were incubated at 37° C. in a humidified incubator with 5% CO2. From each well of the 150 μL/well cell assay plate, 100 μL were harvested and transferred into a 96-well Optiplate (Perkin Elmer, cat. no. 6005290). Cell viability was measured as described below.
(§8) On Day 4, 150p/well of fresh medium was added into a new 0.3 μL/well copy compound plates. From each well of the 200 μL/well cell assay plate, 100 μL was sampled for the cell viability measurement as described below. 50p was harvested and added to the 150p/well compound plate prepared as described in the first point to dilute 1:4 the cell suspension. The cell assay plate diluted and containing 200 μL/well suspension was incubated at 37° C. in a humidified incubator with 5% CO2.
(§9) On Day 4, 150p/well of fresh medium was added into a new 0.3 μL/well copy compound plates. […]
Background: Cellular ATP, detected with luciferase, serves as a proxy for viable cell number.

For experiment [2], the system named is MOLM-13. The experiment is described as follows: Cell proliferation inhibition (CellTiter-Glo), MOLM-13 cells. The following applies: Homo sapiens, MOLM-13 (MLL-AF9). The method, then: as §1, §2, §3, §4, §5, §6, §7, §8, §9
Experiment [3] relates to MV4-11. The experiment is described as follows: Cell proliferation inhibition (CellTiter-Glo), MV4-11 cells. The note with it: Homo sapiens, MV4-11 (MLL-AF4). As to the method: as §1, §2, §3, §4, §5, §6, §7, §8, §9
The mark [4] stands for this setting: K562, 96 h, Day 4, read-out: K-562 IC50 μM (Day 4).
Where [5] appears, read: 96 h, Day 4, read-out: MOLM-13 Day IC50 μM (Day 4)*.
Setting [6] is: 96 h, Day 4, read-out: MV-4:11 IC50 μM (Day 4)*.

Where two headings read alike, the source gives them in different places.

As usually defined, the IC50 is the concentration that gives 50% inhibition. As to `C=CC(=O)N[C@@H]1CCCN(Cc2ccnc(C(=O)NC3CCN(c4nc5c(N6CCOCC6)ncnc5s4)CC3)c2)C1` [Compound B0700-310, (R)-4-((3-acrylamidopiperidin-1-yl)methyl)-N-(1-(7-morpholinothiazolo[5,4-d]pyrimidin-2-yl)piperidin-4-yl)picolinamide], the figures for the IC50 in experiment [1] (setting [4]), in experiment [2] (setting [5]) and in experiment [3] (setting [6]) were 2.89 µM, greater than 10 µM and 8.92 µM, respectively.

Regarding `C=CC(=O)NC1CN(c2ccnc(CC(=O)Nc3ccc(-c4cc5c(N6CCOCC6)ncnc5[nH]4)cc3)n2)C1` [Compound B0700-323, N-(1-(2-(2-((4-(4-morpholino-7H-pyrrolo[2,3-d]pyrimidin-6-yl)phenyl)amino)-2-oxoethyl)pyrimidin-4-yl)azetidin-3-yl)acrylamide], the IC50 in experiment [1] (setting [4]) is greater than 10 µM; in experiment [2] (setting [5]), 3.67 µM; in experiment [3] (setting [6]), 1.18 µM.

With `C=CS(=O)(=O)N[C@@H]1CCCN(Cc2ccnc(C(=O)Nc3ccc(-c4cc5c(N6CCOCC6)ncnc5[nH]4)cc3)c2)C1` [Compound B0700-333, (R)—N-(4-(4-morpholino-7H-pyrrolo[2,3-d]pyrimidin-6-yl)phenyl)-4-((3-(vinylsulfonamido)piperidin-1-yl)methyl)picolinamide], the values for the IC50 in experiment [1] (setting [4]), in experiment [2] (setting [5]) and in experiment [3] (setting [6]) were 0.074 µM, 0.069 µM and 0.051 µM, respectively.

Turning to `Cc1cc(C)n2c1C=C1C=CC(CCC(=O)NCCCCN(C)C/C=C/C(=O)N[C@@H]3CCCN(Cc4ccnc(C(=O)Nc5ccc(-c6cc7c(N8CCOCC8)ncnc7[nH]6)cc5)c4)C3)=[N+]1[B-]2(F)F` [Compound B0700-503], the results for the concentration for half-maximal inhibition (IC50) in experiment [1] (setting [4]), in experiment [2] (setting [5]) and in experiment [3] (setting [6]) were 2.51 µM, 4.51 µM and 2.89 µM, respectively.

As to `Cc1cc(C)n2c1C=C1C=CC(CCC(=O)NCCCCN(C)C/C=C/C(=O)Nc3ccc(CC(=O)Nc4ccc(-c5cc6c(N7CCOCC7)ncnc6[nH]5)cc4)cc3)=[N+]1[B-]2(F)F` [Compound B0700-504], the half-inhibitory concentration (IC50) in experiment [1] (setting [4]) is greater than 10 µM; in experiment [2] (setting [5]), 1.23 µM; in experiment [3] (setting [6]) it was 1.6 µM.

Take `C=CC(=O)NC1CN(c2ccnc(NC3CC4(CCN(c5nc6c(N7CCOCC7)ncnc6[nH]5)CC4)C3)c2)C1` [Compound B0700-507, N-(1-(2-((7-(6-morpholino-9H-purin-8-yl)-7-azaspiro[3.5]nonan-2-yl)amino)pyridin-4-yl)azetidin-3-yl)acrylamide]: the IC50 in experiment [1] (setting [4]) is greater than 10 µM; in experiment [2] (setting [5]), 5.21 µM; in experiment [3] (setting [6]), 4.22 µM.

With `C=CC(=O)N[C@H]1CCN(c2cccc(CS(=O)(=O)Nc3ccc(-c4cc5c(N6CCOCC6)ncnc5[nH]4)cc3)c2)C1` [Compound B0700-511, (S)—N-(1-(3-((N-(4-(4-morpholino-7H-pyrrolo[2,3-d]pyrimidin-6-yl)phenyl)sulfamoyl)methyl)phenyl)pyrrolidin-3-yl)acrylamide], the IC50 in experiment [1] (setting [4]) turned out to be 8.31 µM; in experiment [2] (setting [5]), 0.185 µM; in experiment [3] (setting [6]), 0.113 µM.

Regarding `C=CC(=O)N1CC(N2CCCC(CNS(=O)(=O)N3CCN(c4nc5c(N6CCOCC6)ncnc5[nH]4)CC3)C2)C1` (stereo not shown) [Compound B0700-512], the IC50 in experiment [1] (setting [4]) is 5.18 µM; in experiment [2] (setting [5]) it was greater than 10 µM; in experiment [3] (setting [6]), greater than 10 µM.

Turning to `C=CC(=O)N[C@@H]1CCCN(Cc2ccnc(C(C)Nc3ccc(-c4cc5c(N6CCOCC6)ncnc5[nH]4)cc3)c2)C1` (stereo partly drawn) [Compound B0700-514, N-((3R)-1-((2-(1-((4-(4-morpholino-7H-pyrrolo[2,3-d]pyrimidin-6-yl)phenyl)amino)ethyl)pyridin-4-yl)methyl)piperidin-3-yl)acrylamide], the IC50 in experiment [1] (setting [4]) was greater than 10 µM; in experiment [1] (K562, 168 h, Day 7, read-out: K-562 IC50 μM (Day 7)*), greater than 10 µM; in experiment [2] (setting [5]), 0.631 µM; in experiment [2] (168 h, Day 7, read-out: MOLM-13 Day IC50 μM (Day 7)*) it was 0.546 µM; in experiment [3] (setting [6]), 0.651 µM; in experiment [3] (168 h, Day 7, read-out: MV-4:11 IC50 μM (Day 7)*), 0.54 µM.

With `C=CC(=O)N[C@@H]1CCCN(Cc2ccnc(C(=O)Nc3ccc(-c4cc5c(C6CCOCC6)ncnc5[nH]4)cc3)c2)C1` [Compound B0700-516, (R)-4-((3-acrylamidopiperidin-1-yl)methyl)-N-(4-(4-(tetrahydro-2H-pyran-4-yl)-7H-pyrrolo[2,3-d]pyrimidin-6-yl)phenyl)picolinamide], the results for the IC50 in experiment [1] (setting [4]), in experiment [2] (setting [5]) and in experiment [3] (setting [6]) were 4.34 µM, 1.56 µM and 1.5 µM, respectively.

Take `C=CC(=O)N[C@@H]1CCCN(Cc2ccnc(C(=O)NC3CCN(c4nc5c(N6CCOCC6)ncnc5o4)CC3)c2)C1` [Compound B0700-518]: the concentration for half-maximal inhibition (IC50) in experiment [1] (setting [4]) is 5.3 µM; in experiment [2] (setting [5]) it was greater than 10 µM; in experiment [3] (setting [6]) it was greater than 10 µM.

`O=C(/C=C/Cc1cnc[nH]1)N[C@@H]1CCCN(Cc2ccnc(C(=O)Nc3ccc(-c4cc5c(N6CCOCC6)ncnc5[nH]4)cc3)c2)C1` [Compound B0700-523]: the IC50 in experiment [1] (setting [4]) is greater than 10 µM; in experiment [2] (setting [5]), 0.213 µM; in experiment [3] (setting [6]), 0.232 µM.

As to `CN(C/C=C/C(=O)N[C@@H]1CCCN(Cc2ccnc(C(=O)Nc3ccc(-c4cc5c(N6CCOCC6)ncnc5[nH]4)cc3)c2)C1)C1CC1` [Compound B0700-524, (R,E)-4-((3-(4-(cyclopropyl(methyl)amino)but-2-enamido)piperidin-1-yl)methyl)-N-(4-(4-morpholino-7H-pyrrolo[2,3-d]pyrimidin-6-yl)phenyl)picolinamide], the concentration for half-maximal inhibition (IC50) in experiment [1] (setting [4]) is greater than 10 µM; in experiment [2] (setting [5]), 0.683 µM; in experiment [3] (setting [6]), 0.764 µM.

On to `CCN(C/C=C/C(=O)N[C@@H]1CCCN(Cc2ccnc(C(=O)Nc3ccc(-c4cc5c(N6CCOCC6)ncnc5[nH]4)cc3)c2)C1)C1CC1` [Compound B0700-525], for which the IC50 in experiment [1] (setting [4]) is 6.7 µM; in experiment [2] (setting [5]), 0.506 µM; in experiment [3] (setting [6]) it was 0.634 µM.

Consider `C=CC(=O)N[C@@H]1CCCN(Cc2ccnc(C(=O)NC3CCC(c4cc5c(N6CCOCC6)ncnc5[nH]4)CC3)c2)C1` (stereo partly drawn) [Compound B0700-526, (R)-4-((3-acrylamidopiperidin-1-yl)methyl)-N-(4-(4-morpholino-7H-pyrrolo[2,3-d]pyrimidin-6-yl)cyclohexyl)picolinamide], for which the values for the IC50 in experiment [1] (setting [4]), in experiment [2] (setting [5]) and in experiment [3] (setting [6]) were greater than 10 µM, 3.46 µM and 6.83 µM, respectively.

With `C=CC(=O)N[C@@H]1CCCN(Cc2ccnc(C(=O)NC3CC=C(c4cc5c(N6CCOCC6)ncnc5[nH]4)CC3)c2)C1` (stereo partly shown) [Compound B0700-527], the results for the IC50 in experiment [1] (setting [4]), in experiment [2] (setting [5]) and in experiment [3] (setting [6]) were 2.89 µM, 0.607 µM and 0.371 µM, respectively.

As for `[2H]C([2H])=C([2H])C(=O)N[C@@H]1CCCN(Cc2ccnc(C(=O)Nc3ccc(-c4cc5c(N6CCOCC6)ncnc5[nH]4)cc3)c2)C1` [Compound B0700-557, (R)-4-((3-(acrylamido-2,3,3-d3)piperidin-1-yl)methyl)-N-(4-(4-morpholino-7H-pyrrolo[2,3-d]pyrimidin-6-yl)phenyl)picolinamide], the IC50 in experiment [1] (setting [4]) was 0.997 µM; in experiment [2] (setting [5]), 0.271 µM.

As for `C=CC(=O)N[C@H]1CCCN(Cc2ccnc(C(=O)Nc3ccc(-c4cc5c(N6CCOCC6)ncnc5[nH]4)cc3)c2)C1` [Compound B0700-704], the half-inhibitory concentration (IC50) in experiment [1] (setting [4]) came to 0.74 µM; in experiment [2] (setting [5]), 0.35 µM.
